Data from patent US9938316B2, “Selective inhibitors of α2 isoform of Na,K-ATPase and use thereof for reduction of intra-ocular pressure and as cardiotonic agents” (priority 2013, dated 2018).

Columns and labels:
[1] = tested on: Na,K-ATPase isoforms (α1β1, α2β1, α3β1); details: membranes; cited from earlier work
[2] = tested on: intra-ocular pressure (IOP) of rabbits; assay: 4-aminopyridine (4AP)-induced ocular hypertension in rabbits; assay type: in vivo, New Zealand white rabbits; details: for Effect on 4AP-induced rise in IOP: 1 drop topically 30 minutes prior to 4AP
Protocol: Intra-ocular pressure in rabbits was measured using of a “Reichert Model 30™ Pneumatonometer” after anesthetizing the cornea with local anesthetic.
Since the IOP reflects a balance of the inflow and outflow of aqueous humour, reduction of the increased 4AP-induced inflow of aqueous humour by cardiac glycosides should prevent the increase in IOP. Thus, the standard experimental design to test effects of cardiac glycosides involved topical application of the compounds (1 drop in each eye) 30 minutes prior to application of 4AP and measurement of IOP every 30 minutes over five hours. […] Each experiment was done three times, but the figures depict a representative experiment using a different rabbit for each concentration of the cardiac glycoside.
DGlyN or DMe (0.1 or 1 mM) were applied one hour after the first application of 4AP, which was added every two hours.
New Zealand white rabbits (3-3.5 kg) about 1 year old, of either sex, were housed individually in separate cages in animal room conditions on a reversed, 12-hour dark/light cycle. For the experiments the animals were transferred to rabbit restrainers in a quiet and calm atmosphere (FIG. 1). […] Animal care and treatment were subject to the approval of the institutional committee for animal experiments, Weizmann Institute IACUC permission (no 04270911-2).
IOP (mm Hg) of rabbits was measured using a calibrated Pneumatonometer (Model 30, Reichert technologies, FIG. 1). A local anesthetic Oxybuprocaine HCl (0.4%, 25 μl) was applied to each cornea about a minute before IOP measurements. Two baseline IOP readings were taken before topical administration of the CG (or PBS as control) and after half an hour (Zero time). […] At zero time one drop of 4AP (40 mg/ml, 30 μl) or IB-MECA (1 μM, 30 μl) was administered to both eyes of each rabbit IOP measurements were made at different times as indicated in each experiment. In the experiments for which the IOP was elevated for several hours, 4AP was added every […] or IB-MECA every 2 hours. […] In all cases the figures depict the average effect on IOP (i.e for four or six eyes) compared to control ±SEM. […] Significance of differences from the control was calculated by the unpaired Students t-test (p values), p values <0.05 were considered significant. Corneal thickness (μm) was measured using an ultrasonic pachymeter (Sonogage pachometer, Cleveland, USA), before and during the experiment with CG and 4AP treatments. The values represent averages of three independent measurements for each eye.

cornea of rabbits = assay: Pachymetry: corneal thickness and local toxicity after topical cardiac glycosides; assay type: in vivo, New Zealand white rabbits; details: rabbit, in vivo
Protocol: Thus, in this study, no change in corneal thickness was detected (Table 3), indicative of lack of local toxic effects. […] Similar results were obtained with CG's applied after IB-MECA.
IOP (mm Hg) of rabbits was measured using a calibrated Pneumatonometer (Model 30, Reichert technologies, FIG. 1). A local anesthetic Oxybuprocaine HCl (0.4%, 25 μl) was applied to each cornea about a minute before IOP measurements. Two baseline IOP readings were taken before topical administration of the CG (or PBS as control) and after half an hour (Zero time). […] At zero time one drop of 4AP (40 mg/ml, 30 μl) or IB-MECA (1 μM, 30 μl) was administered to both eyes of each rabbit IOP measurements were made at different times as indicated in each experiment. In the experiments for which the IOP was elevated for several hours, 4AP was added every 1.5 hours or IB-MECA every 2 hours. […] Each experiment was repeated two or three times with similar results. In all cases the figures depict the average effect on IOP (i.e for four or six eyes) compared to control ±SEM. Where error bars are not seen in the figures, the errors are smaller than the symbols used. Significance of differences from the control was calculated by the unpaired Students t-test (p values), p values <0.05 were considered significant. Corneal thickness (μm) was measured using an ultrasonic pachymeter (Sonogage pachometer, Cleveland, USA), before and during the experiment with CG and 4AP treatments. The values represent averages of three independent measurements for each eye.

[3] = tested on: purified α2β1FXYD1 complexes of Na,K-ATPase; assay: Dissociation of cardiac glycosides from the α2β1 isoform complex
Protocol: Since the principal isoform in NPE cells is α2 and dissociation from the pump is expected to affect the duration of the effects on IOP, the dissociation rates of different cardiac glycosides from the purified α2β1 isoform were compared.
Purified α2β1FXYD1 complexes (0.3-0.5 mg/ml) were incubated for 30 minutes at 37° C. in a medium containing ATP, 1 mM; NaCl 100 mM; MgCl2, 4 mM Histidine.HCl 25 mM pH 7.4 without (Control) or with 1 μM of different cardiac glycosides. The enzyme solutions were then diluted 100-fold into a medium containing 100 mM NaCl, 5 mM KCl, 1 mM EDTA (Tris), 0.005 mg/ml C12E8, 0.01 mg/ml SOPS, and 0.001 mg/ml cholesterol and incubated at 37° C. for different lengths of time. Aliquots were removed at different times and Na,K-ATPase activity was measured in triplicate over 0.5 minutes (digoxigenin) or 2 minutes (other cardiac glycosides) in the standard activity medium containing 200 μM ATP. The activity of test samples was divided by the activity of the control samples and the time-course for reversal of inhibition was analyzed by fitting the data to the function vt=v∞e^−kt+c. Normalized curves for comparison of different experiments (e.g. as in FIG. 9) were obtained by subtracting the constant value c from each value of the activity and re-fitting the ratio vt/v∞=1−e^−kt.

C[C@]12CC[C@H](O)C[C@H]1CC[C@@H]1[C@@H]2CC[C@]2(C)[C@@H](C3=CC(=O)OC3)CC[C@]12O [digitoxgenin]
Isoform selectivity of KD (in words) [1]: no isoform selectivity

C[C@H]1O[C@@H](O[C@H]2[C@@H](O)C[C@H](O[C@H]3[C@@H](O)C[C@H](O[C@H]4CC[C@@]5(C)[C@H](CC[C@@H]6[C@@H]5C[C@@H](O)[C@]5(C)[C@@H](C7=CC(=O)OC7)CC[C@]65O)C4)O[C@@H]3C)O[C@@H]2C)C[C@H](O)[C@@H]1O [Digoxin, digoxin, reference compound]
Effect on 4AP-induced rise in IOP ([2]; 0.25 mM): poorly effective
Effect on 4AP-induced rise in IOP ([2]; 1 mM): able to prevent the 4AP-induced rise in IOP
Time IOP is maintained at the low level ([2]; 1 mM, single drop, 4AP every two hours): 1 h
Redness or local irritation in conjunctiva or cornea (cornea of rabbits): neither redness nor local irritation were observed
t1/2 ± SEM (dissociation) [3]: 47.5 ± 5.05 min
k ± SEM (rate of dissociation) ([3]; α2β1 isoform complex, 37° C.): 0.015 ± 0.001, 4 min^−1
